Laboratory results from patent publication US5340800A, “Peptide medicaments for the treatment of disease” (priority 1992, dated 1994).
Read-outs that look alike come from different tables or passages of the source. No end group written: not given here.

Columns and labels:
[1] = test system: polymorphonuclear leukocyte adhesion to TNF activated endothelial cells; format: cell-based, human; conditions: for Average % Change of PMN Adhesion to TNF Activated ECs: average over PMN donors (# donors in parentheses)
Method: Leukocyte adherence can be measured using several assays known in the art, and the preferred assay is described by Charo, et al., 1985, Blood, 65:473. Briefly, the assay consists of labelling leukocytes with an appropriate label, incubating them with endothelial cells and determining the number of leukocytes that adhere. Preferably the cells are labelled with a gamma ray emitting isotope and the preferred labels are ^111 Indium-oxide or ^51 chromium.
Leukocytes may be isolated from human donors using standard techniques. This generally consists of isolating blood in a physiologically balanced salt solution containing an appropriate anticoagulant, and separating the leukocytes by an appropriate separation step, preferably on Ficoll-Hypaquegradients. Contaminating erythrocytes can be removed by hypotonic lysis. The resulting leukocytes are suspended in a physiologically buffered solution, pH 7.4. The preferred physiological buffered solution is Hank's balanced salt solution that is calcium and magnesium free.
The isolated leukocytes can then be labelled by incubating them for an appropriate time, generally 15 minutes, with the desired radioisotope at a predetermined concentration. The radiolabelled cells are washed to remove unincorporated label, and then suspended in an appropriate solution to perform the adhesion assay described below.
Endothelial cells can be prepared from a number of sources and by several techniques known in the art. Preferably they are obtained from human umbilical veins using the procedure of Charo et al., above. Generally, endothelial cells are isolated by enzymatic digestion of the umbilical veins using, preferably, collagenase as described by Jaffe, E. A., et al., 1973, J. of Clin. Invest, 52:2745. The cells are grown on an appropriate tissue culture substratum, preferably gelatine-coated surfaces.
The endothelial cells may be grown in a variety of tissue culture media containing appropriate supplements such as an appropriate concentration of fetal calf serum, and other supplements/additives routinely utilized by those skilled in this art that are recognized as being favorable for endothelial cells. The endothelial cells may be passaged with a dilute solution of an appropriate protease, and if desired a metal ion chelator. Preferably a solution consisting of 0.05 to 0.25% trypsin and 0.02% EDTA is used. To ensure that the cells are indeed endothelial cells, they are tested by immunofluorescence for Factor VIII antigen, a known endothelial cell marker.
Leukocyte adherence to endothelial cell monolayers may be determined as follows. Early passage endothelial cells, generally not beyond the fifth passage, are cultured on an appropriate substratum and in a suitable cell culture medium. The culture substratum is preferably pre-coated with an appropriate substance that enhances the adherence of the endothelial cells. Several such substances are known including fibronectin, poly-L-lysine, gelatin and laminin. Fibronectin is preferred. An appropriate culture substratum is a 96 well micro titer plate, and a suitable medium is Medium 199 containing fetal calf serum and other supplements known to be beneficial for the growth and maintenance of endothelial cells that are well known to those skilled in the art. Prior to adding a predetermined number of labelled leukocytes, the endothelial cell monolayer is washed with a physiologically balanced salt solution containing a reduced amount of fetal calf serum, preferably 1%. The preferred solution is RPMI supplemented with 1% fetal calf serum.
The endothelial cell monolayer containing added leukocytes is incubated for a time sufficient to permit maximum adherence of the leukocytes, and preferably this is conducted at 37° C. for 30 minutes in an appropriate cell culture atmosphere. Generally this would consist of growing and incubating the cells for the assay period in 5% CO2, 95% air, and 95% humidity. […]

[2] = test system: polymorphonuclear leukocyte migration; assay: Chemotaxis of polymorphonuclear leukocytes (trans-well, zymosan-activated human serum); format: cell-based; conditions: for inhibition of chemotaxis migration (in words): 10^-4 -10^-5 M
Method: The materials and methods for ascertaining the chemotactic inhibitory properties of peptides are generally known in the art, and the preferred procedure is described by Capsoni, et al., 1989, J. of Immunol. Meth., 120:125. Generally, chemotaxis is determined by positioning the leukocytes and a chemotactic substance on opposite sides of a membrane in appropriate culture media. The preferred apparatus for doing a chemotaxis assay is produced by Costar Corporation, Cambridge, Mass., and is termed the trans-well cell culture apparatus. […] If a substance is being tested for inhibitory activity this can be achieved by combining it with the leukocytes or the chemotactic substance.
The procedure of Capsoni, et al., above, was followed with the following modifications. Leukocytes may be isolated and labelled with ^111 Indium as described for the adhesion assay, above. The cells are resuspended after labelling in an appropriate cell culture medium at about 5×10^6 cells/ml. Next, a desired amount of the cell suspension is mixed with a predetermined amount of the peptide(s) to be tested for inhibitory activity, and the mixture added to an appropriate filter device. Three μm-pore membranes are situated in the wells of a 24 trans-well tissue culture plate. The cell/inhibitory peptide mixture is incubated for a short time at 37° C. to acclimate the cells to the membrane surface, and to provide sufficient time for them to settle onto the membrane surface. Next, inserts are set in wells containing cell culture media. The media contains zymosan-activated human serum at about 0.5%. Zymosan activation generates complement-derived chemotactic factors which attract the leukocytes through the pores of the membrane. This media was also prewarmed for an appropriate time prior to addition to the cell culture wells. After a 30 minute incubation period at 37° C., the number of leukocytes that have migrated through the membrane filter, in the presence or absence of CD18 peptides, is readily determined by counting the amount of ^111 Indium present in the media. This may be facilitated by adding an appropriate detergent at an appropriate concentration to the media in the wells prior to removing an aliquot for counting. In this way, the inhibitory activities of the peptide being tested could be determined.
Many of the materials and methods used to test the inhibitory activity of the CD18 peptides on the chemotactic response of the polymorphonuclear leukocytes are similar or identical to those used to perform the adhesion assays described in Example 1. Polymorphonuclear leukocytes were isolated and labelled with ^111 Indium as described before, and the cells were suspended in RPMI 1640 culture medium at a concentration of 5×10^6 /ml. Next, 75 μl of the cell suspension and 25 μl of media containing a desired concentration of a CD18 peptide were added to trans-well inserts, and the mixture was incubated at 37° C. for 10 minutes.
To the bottom wells of the 24-well plate 0.6 ml of media containing 0.5% zymosan-activated human serum was added. This solution was also warmed to 37° C. for 10 minutes prior to use.
Next, the assay was conducted by incubating the trans-well inserts containing the cell suspension with the desired CD18 peptide in the 24-well plates at 37° C. for 30 minutes. Subsequently, the inserts were removed, and 60 μl of a 10% sodium dodecyl sulphate solution was added to the wells of the 24-well plate. The plates were incubated with gentle shaking at room temperature for 15 minutes, and 110 μl aliquots were removed and the amount of ^111 Indium determined using a gamma-counter.

In the case of “FDYPSVGQLAHKLAENNIQPIFAVT [Peptide 2-24, NH2 --Phe--Asp--Tyr--Pro--Ser--Val--Gly--Gln--Leu--Ala--His--Lys--Leu--Ala--Glu--Asn--Asn--Ile--Gln--Pro--Ile--Phe--Ala--Val--Thr--COOH]”, the “activity on PMN adhesion at 10^-4 M (in words)” value ([1]; 10^-4 M) is reported as “show activity”, the “Average % Change of PMN Adhesion to TNF Activated ECs” value (from here on “Average % Change of PMN Adhesion”) ([1]; 10^-4 M) is reported as -79% and the “Average % Change of PMN Adhesion” value ([1]; 10^-6 M) is reported as -10%. The “Average % Change of PMN Adhesion” value ([1]; 10^-8 M) was -2%, the “inhibition of chemotaxis migration (in words)” value [2] was “marked inhibition” and the “percent inhibition (-) or enhancement of polymorphonuclear leukocyte migration” value (“percent inhibition (-) or enhancement” for short) ([2]; 10^-4 M, donor 195) was -48%. For the same sequence, the “percent inhibition (-) or enhancement” value ([2]; 10^-4 M, donor 499) was -77%, the “percent inhibition (-) or enhancement” value ([2]; 10^-4 M, donor 591) was -73% and the “percent inhibition (-) or enhancement” value ([2]; 10^-4 M, donor 593) was -89%. The “percent inhibition (-) or enhancement” value ([2]; 10^-5 M, donor 195) was -33%, the “percent inhibition (-) or enhancement” value ([2]; 10^-5 M, donor 499) was -33% and the “percent inhibition (-) or enhancement” value ([2]; 10^-5 M, donor 591) was -9%. For the same sequence, the “percent inhibition (-) or enhancement” value ([2]; 10^-5 M, donor 593) was -40%, the “percent inhibition (-) or enhancement” value ([2]; 10^-6 M, donor 195) was 22% and the “percent inhibition (-) or enhancement” value ([2]; 10^-6 M, donor 499) was 0%. The “percent inhibition (-) or enhancement” value ([2]; 10^-6 M, donor 591) was -17% and the “percent inhibition (-) or enhancement” value ([2]; 10^-6 M, donor 593) was -22%.
With “RIGFGSFVDKTVLPFVNTHPDKLRN [Peptide 6-25, NH2 --Arg--Ile--Gly--Phe--Gly--Ser--Phe--Val--Asp--Lys--Thr--Val--Leu--Pro--Phe--Val--Asn--Thr--His--Pro--Asp--Lys--Leu--Arg--Asn--COOH]” the “Average % Change of PMN Adhesion” value ([1]; 10^-4 M) was -13%, the “Average % Change of PMN Adhesion” value ([1]; 10^-6 M) was “+8%” and the “Average % Change of PMN Adhesion” value ([1]; 10^-8 M) was “+12%”. The “percent inhibition (-) or enhancement” value ([2]; 10^-4 M, donor 195) was -4%, the “percent inhibition (-) or enhancement” value ([2]; 10^-4 M, donor 499) was -3% and the “percent inhibition (-) or enhancement” value ([2]; 10^-4 M, donor 591) was -16%. The “percent inhibition (-) or enhancement” value ([2]; 10^-4 M, donor 593) was -51%, the “percent inhibition (-) or enhancement” value ([2]; 10^-5 M, donor 195) was 11% and the “percent inhibition (-) or enhancement” value ([2]; 10^-5 M, donor 499) was -13%. For the same sequence, the “percent inhibition (-) or enhancement” value ([2]; 10^-5 M, donor 591) was 49%, the “percent inhibition (-) or enhancement” value ([2]; 10^-5 M, donor 593) was 26% and the “percent inhibition (-) or enhancement” value ([2]; 10^-6 M, donor 195) was -44%. For the same sequence, the “percent inhibition (-) or enhancement” value ([2]; 10^-6 M, donor 499) was -8%, the “percent inhibition (-) or enhancement” value ([2]; 10^-6 M, donor 591) was 49% and the “percent inhibition (-) or enhancement” value ([2]; 10^-6 M, donor 593) was 20%.
For “YPIDLYYLMDLSYSMLDDLRNVKKLG [Peptide 1-26, NH2 --Tyr--Pro--Ile--Asp--Leu--Tyr--Tyr--Leu--Met--Asp--Leu--Ser--Tyr--Ser--Met--Leu--Asp--Asp--Leu--Arg--Asn--Val--Lys--Lys--Leu--Gly--COOH]”, the “concentration of peak inhibitory activity in the PMN adhesion assay” value [1] was 10^-4 to 10^-5 M, the “Average % Change of PMN Adhesion” value ([1]; 10^-4 M) was -41% and the “Average % Change of PMN Adhesion” value ([1]; 10^-5 M) was -33%. For the same sequence, the “Average % Change of PMN Adhesion” value ([1]; 10^-6 M) was -6%, the “Average % Change of PMN Adhesion” value ([1]; 10^-7 M) was “+24%” and the “Average % Change of PMN Adhesion” value ([1]; 10^-8 M) was “+9%”. The “percent inhibition (-) or enhancement” value ([2]; 10^-4 M, donor 195) was 19%, the “percent inhibition (-) or enhancement” value ([2]; 10^-4 M, donor 499) was 8% and the “percent inhibition (-) or enhancement” value ([2]; 10^-4 M, donor 591) was -9%. For the same sequence, the “percent inhibition (-) or enhancement” value ([2]; 10^-4 M, donor 593) was -50%, the “percent inhibition (-) or enhancement” value ([2]; 10^-5 M, donor 195) was -41% and the “percent inhibition (-) or enhancement” value ([2]; 10^-5 M, donor 499) was -3%. For the same sequence, the “percent inhibition (-) or enhancement” value ([2]; 10^-5 M, donor 591) was -36%, the “percent inhibition (-) or enhancement” value ([2]; 10^-5 M, donor 593) was -19% and the “percent inhibition (-) or enhancement” value ([2]; 10^-6 M, donor 195) was -37%. The “percent inhibition (-) or enhancement” value ([2]; 10^-6 M, donor 499) was 13%, the “percent inhibition (-) or enhancement” value ([2]; 10^-6 M, donor 591) was -39% and the “percent inhibition (-) or enhancement” value ([2]; 10^-6 M, donor 593) was -14%.
In the case of “IPKSAVGELSEDSSNVVHLIKNAYNKLSS [Peptide 3-29, NH2 --Ile--Pro--Lys--Ser--Ala--Val--Gly--Glu--Leu--Ser--Glu--Asp--Ser--Ser--Asn--Val--Val--His--Leu--Ile--Lys--Asn--Ala--Tyr--Asn--Lys--Leu--Ser--Ser--COOH]”, the “activity on PMN adhesion at 10^-4 M (in words)” value ([1]; 10^-4 M) is reported as “show activity”, the “Average % Change of PMN Adhesion” value ([1]; 10^-4 M) is reported as -58% and the “Average % Change of PMN Adhesion” value ([1]; 10^-5 M) is reported as “+12%”. The “Average % Change of PMN Adhesion” value ([1]; 10^-6 M) was -5%, the “Average % Change of PMN Adhesion” value ([1]; 10^-7 M) was “+27%” and the “Average % Change of PMN Adhesion” value ([1]; 10^-8 M) was -2%. The “inhibition of chemotaxis migration (in words)” value [2] was “marked inhibition”, the “percent inhibition (-) or enhancement” value ([2]; 10^-4 M, donor 195) was -7% and the “percent inhibition (-) or enhancement” value ([2]; 10^-4 M, donor 499) was -33%. For the same sequence, the “percent inhibition (-) or enhancement” value ([2]; 10^-4 M, donor 591) was -57%, the “percent inhibition (-) or enhancement” value ([2]; 10^-4 M, donor 593) was -85% and the “percent inhibition (-) or enhancement” value ([2]; 10^-5 M, donor 195) was 11%. The “percent inhibition (-) or enhancement” value ([2]; 10^-5 M, donor 499) was 23%, the “percent inhibition (-) or enhancement” value ([2]; 10^-5 M, donor 591) was -6% and the “percent inhibition (-) or enhancement” value ([2]; 10^-5 M, donor 593) was -17%. For the same sequence, the “percent inhibition (-) or enhancement” value ([2]; 10^-6 M, donor 195) was -26%, the “percent inhibition (-) or enhancement” value ([2]; 10^-6 M, donor 499) was -10% and the “percent inhibition (-) or enhancement” value ([2]; 10^-6 M, donor 591) was 11%. For the same sequence, the “percent inhibition (-) or enhancement” value ([2]; 10^-6 M, donor 593) was -6%.
